Laboratory results taken from US6492337B1, “Galactosylceramide, glucosylceramide, lactosylceramide, and specific catchers therefor for use in the prophylaxis or therapy of prediabetes, diabetes and/or associated complication” (A+ Science AB, priority 1997, dated 2002).

Experiments:
[1] = test system: NOD mouse model of type 1 diabetes; experiment: Intrathymic injection in NOD mice, later diabetes incidence; type: in vivo
Description: The NOD mouse model is an animal model of type 1 diabetes. The mice develop spontaneously diabetes within 200 days of life with an incidence of 50% or more. In the present study the animals were examined daily and once a week checked for glucosuria. They were diagnosed as diabetic if their blood glucose values was higher than 200 mg glucose per 100 ml. When diagnosed as diabetics the animals were sacrificed. Otherwise the remaining non-diabetic animals were sacrificed at the end 5 of the study after 200 days of age.
Four groups of animals each containing between 30 and 40 animals were investigated: The animals were injected intrathymically when 3 weeks old. There was injected […] galactosylceramide in 100 μl vehicle (PBS). The control mice were treated with the 100 μl PBS alone. In another experiment liposome preparation of galactosylceramide was made using phosphatidylcholin and galactosylceramide. The control group was treated with phosphatidylcholin and PBS alone.

[2] = test system: human mononuclear cells (monocytes and T-cells); settings: compared to incubation with LPS and PHA without galactosylceramide; cited from earlier work

Question: With galactosylceramide as the substance, how does the “mice that developed diabetes, two studies together” value ([1]; both studies pooled, 31 of 70 mice, PBS mice 57.4%) read?
Answer: 44.3%

Question: And the “time of diabetes development versus control mice” value ([1]; first study, pure form)?
Answer: occurred later than among the control mice

Question: What about the “mice that developed diabetes” value ([1]; first study, pure form in PBS, intrathymic injection at 3 weeks old, followed to 200 days of age, 17 of 37 mice, PBS control 56.8%) of the same substance?
Answer: 45.9%

Question: And the IL-6 production [2]?
Answer: increased

Question: And the TNF production [2]?
Answer: increased
